Reference: patent publication US20100204202A1, “DRUG FOR ALLEVIATING MOTOR COMPLICATIONS OR PSYCHIATRIC SYMPTOMS OF PARKINSON'S DISEASE” (Asubio Pharma Co., Ltd., priority 2007, published 2010)
Counter-ions that a name gives are not always drawn.

Assays:
[1] = system: Parkinson's disease patients; test: Clinical test of efficacy, safety and tolerability in patients with motor complications associated with Parkinson's disease; assay type: in vivo, human
Text: The efficacy of SUN N4057 on motor complications accompanying levodopa therapy in Parkinson's disease patients was studied in randomized, double-blind, placebo-controlled, multicenter, international, preliminary study. The patients aged 40 to 85 years, having idiopathic Parkinson's disease fulfilling the United Kingdom Parkinson's Disease Society (UK PDS) brain bank diagnostic criteria, having a presumed or confirmed diagnosis of Parkinson's disease in Stages 2 to 4 on the Hoehn & Yahr classification scale when in an “off” state, having a diagnosis of Parkinson's disease for at least 5 years, and being on a stable regimen of levodopa (L-dopa)/carbidopa for 30 days prior to the administration of the tested drug were enrolled into the study.
After providing their informed consent, the subjects were screened in 9 to 22 days before scheduled date of start of administration. During the screening phase, the patients continued to take their usual regimen of antiparkinsonian drugs including combinations of levodopa and carbidopa or combined use of single drugs.
At the baseline (8±2 days before scheduled date of start of administration), the subjects returned to the clinic for a baseline assessment of motor fluctuations over an 8-hour period. They received the first morning dose of the patient's usual anti-Parkinson's disease drugs (including combination of levodopa and carbidopa or combined use of single drugs), and the 8 hour evaluation began approximately 1 hour after taking the initial treatment. Each hour for 8 hours, the patient were assessed and it was recorded whether the patient was in the “on” (without dyskinesia), “on with dyskinesia,” or “off” motor states. The Unified Parkinson's Disease Rating Scale (UPDRS) Part III and the Abnormal Involuntary Movement Scale AIMS were also completed each hour over the 8-hour observation period.
The subjects judged eligible after the screening and baseline evaluation were randomly assigned in a 3:1 ratio (3 active:1 placebo) to receive SUN N4057 or matching placebo. The subjects received continuous intravenous infusion of SUN N4057 (target plasma concentration of 30 ng/mL) or a placebo for 12 hours a day for 2 consecutive days. The dose regimen was selected to reach the target plasma concentration 1 hour after the start of administration and to be maintained for 11 hours. The mean dosage of SUN N4057 for the patients was 13.123 mg on day 1 and 9.550 mg on day 2.
On day 1, motor assessments (recording of “on” or “off” periods), the Unified Parkinson's Disease Rating Scale (UPDRS) Part III, and the Abnormal Involuntary Movement Scale (AIMS) were conducted immediately prior to dosing with regular antiparkinsonian medications. After the first morning dose of the regular antiparkinsonian medication was administered, intravenous infusion of SUN N4057 or placebo was started. For 8 hours from the start of infusion, motor assessments, including the UPDRS Part III, AIMS, and recording of “on” and “off” periods were to be completed hourly.

[2] = system: Parkinson's disease model rats; test: Inhibition of induction of hyperkinesia of the forelimbs; assay type: in vivo, rat
Procedure: By repeated doses of levodopa to Parkinson's disease model rats, hyperkinesia of the forelimbs (abnormal action similar to dyskinesia in clinical studies) was observed (see FIG. 3). Therefore, it was studied whether it is possible to inhibit the induction of hyperkinesia of the forelimbs by repeated dosage of the tested substance from the start along with the start of repeated doses of levodopa.
The tested substance was intraperitoneally administered about 20 minutes before levodopa administration.

[3] = After administration (day 2), i.v. infusion 12 hours a day, n = 18

Structure (SMILES): O=C1c2ccccc2OC=C(Cl)N1CCCCN1CC=C(c2ccccn2)CC1 [SUN N4057, 3-chloro-4,5-dihydro-4-{4-[4-(2-pyridyl)-1,2,3,6-tetrahydropyridin-1-yl]butyl}-1,4-benzoxazepin-5-one.dihydrochloride-dihydrate]
- Percentage of off time [1, 3]: 9.7%
- Percentage of on time with dyskinesia [1, 3]: 49.3%
- Percentage of on time without dyskinesia [1, 3]: 41.0%
- serious adverse events or deaths ([1]; clinical study): no serious adverse events or deaths were reported
- decrease of the percentage of off time in the comparison with baseline ([1]; day 2 (9.7-20.8)): 11.1 points
- increase of the percentage of on time without dyskinesia in the comparison with baseline ([1]; day 2 (41.0-18.8)): 22.2 points
- percentage of responder (dyskinesia by AIMS improved in severity or suppressed to zero without prolongation of off time) ([1]; day 2, placebo 0%, p=0.02): 56%
- UPDRS Part 3 decline in comparison with the baseline ([1]; day 2 of administration, placebo 0.9): 4.4 point
- hyperkinesia of the forelimbs compared with the results after the 3 week withdrawal period ([2]; 3 mg/kg i.p. for 3 weeks): significant inhibitory effect
- appearance of hyperkinesia of the forelimbs ([2]; 3 mg/kg i.p. for 3 weeks together with the start of repeated doses of levodopa): reduced
